Experimental data published in patent US20230295110A1, “PHD INHIBITOR COMPOUNDS, COMPOSITIONS, AND METHODS OF USE” (Akebia Therapeutics, Inc., priority 2020, published 2023).
Read-outs that look alike come from different tables or passages of the source.

Key:
[1] = target: full-length human PHD1 (Homo sapiens (Human), UniProt Q96KS0); assay: TR-FRET assay for PHD enzymes, PHD1; assay type: biochemical; conditions: for IC50: TR-FRET, 15 nM PHD1, 1 μM 2-OG
Excerpt: PHD1 was expressed in a baculovirus expression system as the full-length protein (NCBI accession number NP_542770.2) with an N-terminal FLAG tag (molecular weight 44.9 kDa).

[2] = target: full-length human PHD2 (Homo sapiens (Human), UniProt Q9GZT9); assay: TR-FRET assay for PHD enzymes, PHD2
full-length human PHD2, sequence (Q9GZT9 whole entry): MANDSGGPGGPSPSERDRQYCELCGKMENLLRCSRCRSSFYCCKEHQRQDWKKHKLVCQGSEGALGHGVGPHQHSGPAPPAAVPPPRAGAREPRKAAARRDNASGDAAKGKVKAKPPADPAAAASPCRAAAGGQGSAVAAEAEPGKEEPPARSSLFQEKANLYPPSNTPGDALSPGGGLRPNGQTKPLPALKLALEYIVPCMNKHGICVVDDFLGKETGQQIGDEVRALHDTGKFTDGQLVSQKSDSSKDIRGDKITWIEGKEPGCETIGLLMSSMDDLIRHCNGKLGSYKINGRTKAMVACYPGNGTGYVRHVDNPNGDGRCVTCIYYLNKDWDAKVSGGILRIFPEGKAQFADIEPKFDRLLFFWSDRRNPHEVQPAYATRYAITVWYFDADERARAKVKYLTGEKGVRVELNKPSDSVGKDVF
Excerpt: Time-resolved fluorescence resonance energy transfer (TR-FRET) assay was utilized to determine the enzymatic half maximal inhibitory concentration (IC50) value of PHD inhibitors against the full-length human prolyl-4-hydroxylase domain (PHD) enzymes, PHD1, PHD2, and PHD3. The TR-FRET assay was developed based on the specific binding of hydroxylated HIF-1α peptide with the complex formed by VHL, EloB and EloC (VBC), to generate a fluorescent signal. Terbium (Tb)-Donor (monoclonal antibody anti-6His-Tb-cryptate Gold) and D2-acceptor (streptavidin [SA]-D2) of TR-FRET are linked to the VBC complex and to HIF-1α peptide, respectively. The VBC complex binds specifically to the HIF-1α peptide when it is hydroxylated, allowing energy transfer from TR-FRET donor to acceptor (FIG. 1). […] The plates were incubated for 30 minutes at room temperature without rotation. […] TR-FRET assays were performed in triplicate at each concentration of compound and the assays were repeated independently three times.

[3] = read-out: PHD2 IC50, TR-FRET, 5 nM PHD2, 1 μM 2-OG

full-length human PHD1, sequence (Q96KS0 whole entry): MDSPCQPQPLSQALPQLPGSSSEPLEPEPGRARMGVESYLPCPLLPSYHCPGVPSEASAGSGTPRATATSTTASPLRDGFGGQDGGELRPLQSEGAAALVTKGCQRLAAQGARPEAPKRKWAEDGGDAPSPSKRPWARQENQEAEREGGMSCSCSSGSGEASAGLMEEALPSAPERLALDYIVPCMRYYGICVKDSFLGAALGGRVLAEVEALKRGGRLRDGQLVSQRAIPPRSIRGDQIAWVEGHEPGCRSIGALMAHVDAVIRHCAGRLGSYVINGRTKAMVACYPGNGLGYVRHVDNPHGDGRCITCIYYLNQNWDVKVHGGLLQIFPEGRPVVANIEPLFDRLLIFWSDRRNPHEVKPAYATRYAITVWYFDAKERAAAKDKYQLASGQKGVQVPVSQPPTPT

Row | SMILES | IC50 [1] [nM] | IC50 [2, 3] [nM] | Km ([1]; read-out: Km of 2-OG for PHD1) [µM] | IC50 [2] [nM]
1 | Cc1c(-c2cccc(F)c2)cnc(C(=O)NCC(=O)O)c1O [Compound 1, (5-(3-Fluorophenyl)-3-hydroxy-4-methylpicolinoyl)glycine] | < 100 | < 100 |  | 
2 | O=C(O)CCC(=O)C(=O)O [Compound 2-OG, 2-oxoglutarate, reference compound] |  |  | 0.0127 | 
3 | Cc1c(-c2cnn(-c3ccccc3)c2)cnc(C(=O)NCC(=O)O)c1O [Compound 4, (3-Hydroxy-4-methyl-5-(1-phenyl-1H-pyrazol-4-yl)picolinoyl)glycine] | < 100 | < 100 |  | 
4 | Cc1c(-c2cnn(C3CCN(C(=O)OC(C)(C)C)CC3)c2)cnc(C(=O)NCC(=O)O)c1O [Compound 6, (5-(1-(1-(Tert-butoxycarbonyl)piperidin-4-yl)-1H-pyrazol-4-yl)-3-hydroxy-4-methylpicolinoyl)glycine] | < 100 | < 100 |  | 
5 | Cc1c(-c2cccc(Oc3ccccc3)c2)cnc(C(=O)NCC(=O)O)c1O [Compound 8, (3-Hydroxy-4-methyl-5-(3-phenoxyphenyl)picolinoyl)glycine] | < 100 | < 100 |  | 
6 | Cc1c(-c2ccncc2)cnc(C(=O)NCC(=O)O)c1O [Compound 11, (5-Hydroxy-4-methyl-[3,4′-bipyridine]-6-carbonyl)glycine] | < 100 | < 100 |  | 
7 | Cc1c(-c2ccccn2)cnc(C(=O)NCC(=O)O)c1O [Compound 12, (5′-Hydroxy-4′-methyl-[2,3′-bipyridine]-6′-carbonyl)glycine] | < 100 | < 100 |  | 
8 | Cc1c(-c2cccc(Cl)c2)cnc(C(=O)NC(C)(C)C(=O)O)c1O [Compound 13, 2-(5-(3-Chlorophenyl)-3-hydroxy-4-methylpicolinamido)-2-methylpropanoic Acid] | > 10000 |  |  | > 10000
9 | Cc1c(-c2cccc(Cl)c2)cnc(C(=O)NC2(C(=O)O)CC2)c1O [Compound 14, 1-(5-(3-Chlorophenyl)-3-hydroxy-4-methylpicolinamido)cyclopropane-1-carboxylic acid] | 1000 to 10000 |  |  | 1000 to 10000
10 | Cc1c(-c2cccc(Cl)c2)cnc(C(=O)NC2(C(=O)O)CCC2)c1O [Compound 15, 1-(5-(3-Chlorophenyl)-3-hydroxy-4-methylpicolinamido)cyclobutane-1-carboxylic acid] | > 10000 |  |  | > 10000
11 | Cc1c(-c2cccc(Cl)c2)cnc(C(=O)NC2(C(=O)O)COC2)c1O [Compound 16, 3-(5-(3-Chlorophenyl)-3-hydroxy-4-methylpicolinamido)oxetane-3-carboxylic Acid] | 1000 to 10000 |  |  | > 10000
12 | Cc1c(-c2ccc3c(c2)CCC(C)N3)cnc(C(=O)NCC(=O)O)c1O (stereo not drawn) [Compound 17, (3-Hydroxy-4-methyl-5-(2-methyl-1,2,3,4-tetrahydroquinolin-6-yl)picolinoyl)glycine] | < 100 | < 100 |  | 
13 | Cc1cc(CCOCc2ccccc2)c(O)c(C(=O)NCC(=O)O)n1 [Compound 23, (4-(2-(Benzyloxy)ethyl)-3-hydroxy-6-methylpicolinoyl)glycine] | 100 to 1000 |  |  | 100 to 1000
14 | Cc1cc(Cc2ccc(F)cc2)c(O)c(C(=O)NCC(=O)O)n1 [Compound 24, (4-(4-Fluorobenzyl)-3-hydroxy-6-methylpicolinoyl)glycine] | 100 to 1000 |  |  | 100 to 1000
15 | Cc1ncccc1-c1cnc(C(=O)NCC(=O)O)c(O)c1C [Compound 29] | 100 to 1000 |  |  | 100 to 1000
16 | Cc1c(-c2ccc3ncccc3c2)cnc(C(=O)NCC(=O)O)c1O [Compound 34, (3-hydroxy-4-methyl-5-(quinolin-6-yl)picolinoyl)glycine] | < 100 | < 100 |  | 
17 | Cc1c(Oc2ccccc2)cnc(C(=O)NCC(=O)O)c1O [Compound 35, (3-hydroxy-4-methyl-5-phenoxypicolinoyl)glycine] | 100 to 1000 | 100 to 1000 |  | 
18 | Cc1c(C(=O)c2ccccc2)cnc(C(=O)NCC(=O)O)c1O [Compound 40, (5-benzoyl-3-hydroxy-4-methylpicolinoyl)glycine] | 100 to 1000 |  |  | 100 to 1000
19 | Cc1c(-c2nnn(-c3cc(Cl)cc(Cl)c3)n2)cnc(C(=O)NCC(=O)O)c1O [Compound 45, (5-(2-(3,5-dichlorophenyl)-2H-tetrazol-5-yl)-3-hydroxy-4-methylpicolinoyl)glycine] | < 100 | < 100 |  | 

Row | SMILES | IC50 [1] [nM] | IC50 [2, 3] [nM] | Km ([1]; read-out: Km of 2-OG for PHD1) [µM] | IC50 [2] [nM]
20 | CCc1c(-c2cccc(Cl)c2)cnc(C(=O)NCC(=O)O)c1O [Compound 46, (5-(3-chlorophenyl)-4-ethyl-3-hydroxypicolinoyl)glycine] | < 100 | < 100 |  | 
21 | Cc1c(-c2cnn(-c3ccccc3)c2F)cnc(C(=O)NCC(=O)O)c1O [Compound 49, (5-(5-fluoro-1-phenyl-1H-pyrazol-4-yl)-3-hydroxy-4-methylpicolinoyl)glycine] | < 100 | < 100 |  | 
22 | Cc1c(-c2cnn(-c3ccccc3)c2C)cnc(C(=O)NCC(=O)O)c1O [Compound 50, (3-hydroxy-4-methyl-5-(5-methyl-1-phenyl-1H-pyrazol-4-yl)picolinoyl)glycine] | 100 to 1000 |  |  | 100 to 1000
23 | Cc1c(-c2ccn(-c3ccccc3)c2)cnc(C(=O)NCC(=O)O)c1O [Compound 51] | < 100 |  |  | 100 to 1000
24 | Cc1c(-c2nnn(C3CC3)n2)cnc(C(=O)NCC(=O)O)c1O [Compound 52] | < 100 | < 100 |  | 
25 | Cc1c(C#CCOc2ccccc2)cnc(C(=O)NCC(=O)O)c1O [Compound 53] | < 100 | < 100 |  | 
26 | Cc1c(S(=O)(=O)c2ccccc2)cnc(C(=O)NCC(=O)O)c1O [Compound 54] | 100 to 1000 |  |  | 100 to 1000
27 | Cc1c(N2CCN(c3ccccc3)CC2)cnc(C(=O)NCC(=O)O)c1O [Compound 55] | < 100 |  |  | 100 to 1000
28 | Cc1c(N2CCC(c3ccccc3)CC2)cnc(C(=O)NCC(=O)O)c1O [Compound 56] | < 100 | < 100 |  | 
29 | Cc1c(Oc2ccccc2)cnc(C(=O)NCC(=O)O)c1O [Compound 57, 2-(3-hydroxy-4-methyl-5-phenoxypicolinamido)acetic acid] | 1000 to 10000 |  |  | 100 to 1000
30 | Cc1c(Cc2ccccc2)cnc(C(=O)NCC(=O)O)c1O [Compound 58] | 1000 to 10000 |  |  | 100 to 1000
31 | Cc1c(Sc2ccccc2)cnc(C(=O)NCC(=O)O)c1O [Compound 59] | 1000 to 10000 |  |  | 100 to 1000
32 | Cc1c(-c2cnn(-c3ccc(Cl)cc3Cl)c2)cnc(C(=O)NCC(=O)O)c1O [Compound 60] | < 100 | < 100 |  | 
33 | Cc1c(CCc2ccccc2)cnc(C(=O)NCC(=O)O)c1O [Compound 61] | 100 to 1000 |  |  | 100 to 1000
34 | Cc1c(C#Cc2ccccc2)cnc(C(=O)NCC(=O)O)c1O [Compound 62] | < 100 | < 100 |  | 
35 | Cc1c(-c2nnn(-c3ccc(Cl)cc3)n2)cnc(C(=O)NCC(=O)O)c1O [Compound 63] | < 100 | < 100 |  | 
36 | Cc1c(-c2nn[nH]n2)cnc(C(=O)NCC(=O)O)c1O [Compound 64] | 100 to 1000 |  |  | 100 to 1000
37 | Cc1c(-c2nnn(-c3ccccc3)n2)cnc(C(=O)NCC(=O)O)c1O [Compound 65] | < 100 | < 100 |  | 
38 | Cc1c(-c2cnn(-c3cc(Cl)cc(Cl)c3)c2)cnc(C(=O)NCC(=O)O)c1O [Compound 66] | < 100 | < 100 |  | 
